Measured values as given in a melting point compilation (Tetko et al.; mined from patent text by program, amines drawn as free bases though some values may be those of a salt).

| melting point [°C] | Structure (SMILES) |
| --- | --- |
| 150 to 152 | NC(=O)c1ccc(OC(F)(F)C(F)(F)Br)cc1 |
| 51 to 53 | Cc1ccc2c(Br)csc2c1 |
| 160 to 161 | COc1cc(C)cc(OC)c1N(C)C(C)=O |
| 187 | COc1ccc(-c2ccc(N)nn2)cc1OCC(C)C |
| 178 to 180 | N#Cc1cc(N2CCC(N3CCOCC3)CC2)ccc1N |
| 237 to 238 | O=C(NC(=O)c1c(Cl)cccc1Cl)Nc1noc(-c2ccc(C(F)(F)F)cc2)c1Cl |
| 257 to 259 | O=C(Nc1ccc(C(=O)N2Cc3ccccc3Cc3ccccc32)cc1)c1c(Cl)cccc1Cl |
| 53 to 54 | C=C(C)Cc1cc(C=O)cc(OC)c1O |
| 260 to 262 | O=c1c(O)c(-c2ncn(Cc3ccc(F)cc3)n2)oc2ccccc12 |
| 44 to 45 | O=[N+]([O-])c1ccc(F)cc1OCC(F)(F)F |
| > 230 | CNc1cc(C)nc2c(S(=O)(=O)c3ccccc3)c(SC)nn12 |
| 60 to 61 | COc1ccc(CC(=O)NO[C@@H](C)c2ccccc2)cc1 |
| 200 to 202 | CC(=O)NC[C@H]1NC(=O)[C@H]1NC(=O)Cc1ccccc1 (relative stereo) |
| 108 | O=C(O)CCCCOc1cccc2occc12 |
| 123 | Cc1cc(C)cc(COC(=O)C(NC(=O)OC(C)(C)C)C(c2ccccc2)c2ccccc2)c1 (stereo not given) |
| 37 to 38 | CSc1nc(C)cc(Cl)n1 |
| 85 to 91 | COC(=O)CCCCC(C[N+](=O)[O-])SCC(=O)O (stereo not given) |
| 120 to 122 | O=C1CCCc2nc(C#Cc3cccnc3)ccc21 |
| 210 | CCn1c(N)c(C(=O)NC)c(=O)c2ccc(-c3ccc(NS(=O)(=O)c4cccc(Cl)c4Cl)cc3)nc21 |
| 148 to 150 | O=C(OCC1=CC(O)C2C=COC(OC3OC(CO)C(O)C(O)C3O)C12)c1ccc(O)cc1 (stereo not given) |
| 155 to 156 | O=C(O)C1=C(c2ccccc2)c2ccccc2CS1 |
| 105 | Cc1cccc(C2=CCN(c3ccc(F)nn3)CC2)c1 |
| 216 to 218 | CC(C)(C)n1cc(C#N)c2cc([N+](=O)[O-])cnc21 |

| melting point [°C] | Structure (SMILES) |
| --- | --- |
| 183 to 185 | COC(=O)Cc1cc(C(=O)c2ccc3cc(-c4ccccc4)[nH]c3c2)sc1-c1ccccc1 |
| 168 to 170 | Cc1[nH]cnc1CSCCN=CNC#N |
| 120 to 130 | FC(F)(F)Oc1ccc(C2N=C(Nc3cccc(-c4cncnc4)c3)n3ccnc32)cc1 (stereo not given) |
| 163 to 164 | COc1ccc(/C=C/C(=O)c2c(OC)cc(OC)cc2OC(=O)[C@H](C)NC(=O)OCc2ccccc2)cc1 |
| 158 to 160 | ON=Cc1c[nH]cc1-c1cccc(Cl)c1Cl |
| 262 to 263 | O=c1[nH]c(=S)c2[nH]cnc2n1Cc1ccccc1 |
| 158 | CC(=S)NC[C@H]1CN(c2ccc(N3CCOCC3)c(F)c2)C(=O)O1 |
| 196 to 197 | COc1ccc(C2=NN(C3CCN(Cc4ccncc4)CC3)C(=O)[C@@H]3CC=CC[C@H]23)cc1OC |
| 64 | COc1c(C#N)c(OC)c(OC)c(OC)c1OC |
| 89.2 to 89.5 | CCN(CC)Cc1cccc(-c2cc(OCc3ccccc3)c3cc(OC)ccc3n2)c1 |
| 180 to 183 | CCOC(=O)c1c(CCCCc2nccn2C)nc2cc(OC)c(OC)cc2c1-c1ccc(OC)c(OC)c1 |
| 192 to 193 | C[C@H](C=C[C@H](C)[C@H](C)CO)[C@H]1CC[C@H]2C3=CCC4CC(=O)CC[C@]4(C)[C@H]3CC[C@]12C (stereo not given in full) |
| 55 to 56 | CSc1nc(Cl)c(I)c(C(F)(F)F)n1 |
| 119 to 120 | CN(C)CCCn1c2c(c3ccccc31)CCS(=O)(=O)CCC2 |
| 204 to 205 | O=C1Cc2cc(C(=O)c3ccccc3)ccc2N1 |
| 88 to 91.5 | COC(=O)C(C)n1nnc2ccc(OCc3ccccc3)cc21 (stereo not given) |
| 213 to 215 | Cc1nc2c(c3c1[nH]c1cccc(F)c13)C(=O)CC(C(C)C)C2 (stereo not given) |
| 171 to 172 | COc1ccc(CCOc2nccc(-c3cccc(C(=O)O)c3)n2)cc1OC |
| 182 | NS(=O)(=O)c1cccc(-c2cc(-c3nc(-c4ccc(Cl)cc4)cc(C(F)(F)F)n3)ccn2)c1 |
| 119 to 121 | C=CC(=O)NCc1ccc([N+](=O)[O-])cc1 |
| 141 to 143 | CC(C)C1NC(=O)CN1C(=O)CN (stereo not given) |
| 205 to 207 | O=c1[nH]c(=O)n2c3c(cccc13)CCC2CO (stereo not given) |
| 182 to 183 | CC(=O)C(=CNN1C=CC=NC1c1ccncc1)C(C)=O (stereo not given) |

| melting point [°C] | Structure (SMILES) |
| --- | --- |
| 155 to 158 | CCOC(=O)c1cnc2cc(OC)c(OC)cc2c1Nc1cccc(Br)c1 |
| 92 to 93 | Cc1cc(C(=O)Nc2ccccc2)c(C)o1 |
| 160 to 162 | CCn1cc(C(=O)O)c(=O)cc1-c1ccc(N(C)C)c(C)c1 |
| 188 to 190 | CCOc1cc2c3c(c4cc(OCC)c(OCC)cc4c2cc1OCC)C(=O)C=CC3=O |
| > 300 | CCOC(=O)C(=O)Nc1cc(C(=O)O)ccc1O |
| 142 to 143 | COc1ccc(C(=O)c2ccc(OCc3nc(-c4ccccc4)oc3C)cc2)c(OCCC(=O)O)c1 |
| 106 to 108 | CC(=C=CC(C)(C)c1ccc(Cl)cc1)C(=O)O |
| 56 to 57 | CCC(O)(c1ccc(OCc2ccccc2)cc1)c1ccc(Cl)cc1Cl (stereo not given) |
| 211 to 212 | CN1CCN(Cc2c(-c3cc(C(C)(C)C)c(O)c(C(C)(C)C)c3)nc3n2CCS3)CC1 |
| 115 to 116 | CC(=O)N1CCCC(=O)c2c(Cl)cccc2CCC1=O |
| 103 to 105 | OCCCSc1nc2ccc(Cc3ccccc3)cc2[nH]1 |
| 233 to 235 | Cc1c(-c2ccncc2)[nH]c2ccc(C3=NNC(=O)CC3C)cc12 (stereo not given) |
| 151 to 153 | COC(=O)c1nc(N2CCCC2)ccc1Oc1nc(OC)cc(OC)n1 |
| 205 to 208 | O=C1NCN2c3ccc([N+](=O)[O-])cc3Sc3cccc1c32 |
| 46 to 48 | O=C(OC(F)C(F)F)c1cnccn1 (stereo not given) |
| 143 to 146 | O=[N+]([O-])C/C=C/c1sc2ccc(Cl)cc2c1Cl |
| 168 | COc1ccc(Br)cc1S(=O)(=O)NC(C)(C)CO |
| 173 to 174 | N#CCCNC(=O)C1=CC(CF)(CF)Oc2ccc([N+](=O)[O-])cc21 |
| 70 to 71.5 | CC(=O)n1cc(Cl)c(-c2cccc(C(F)(F)F)c2)c1 |
| 230 to 232 | CCOc1ccc([C@H]2O[C@H](CC(=O)O)C(=O)N(CC(C)(C)C)c3ccc(Cl)cc32)c(OC)c1 (relative stereo) |
| 142 to 143 | O=c1[nH]c(=O)n(C2COC(CO)C2CO)cc1C=CBr (stereo not given) |
| 172 to 175 | COc1ccc2c(C(=S)N(C)CC(=O)N(C)C)cccc2c1C(F)(F)F |
| 181 to 183 | C=CCOC(=O)C(C#N)=C1Nc2ccccc2O1 |

| Structure (SMILES) | melting point [°C] |
| --- | --- |
| O=C(O)C1C2CNCC21 (stereo not given) | 101 to 102 |
| Cc1cc(C2=NOC(c3cc(Cl)cc(Cl)c3)(C(F)(F)F)C2)ccc1Br (stereo not given) | 105 to 108 |
| CCCCCCC(=O)N[C@@H]1N=C(c2ccccc2)c2ccccc2N(C)C1=O | 49 to 54 |
| O=C1CCN(C(=O)C(F)(F)F)CC1 | 68 |
| S=C1CN=C(c2ccccn2)c2cc(Cl)ccc2N1 | 217 to 218 |
| CC(C)(C)c1ccc(SC(CCl)S(=O)(=O)c2ccc(Cl)cc2)cc1 (stereo not given) | 52 to 68 |
